Experimental data reported in ChEMBL document CHEMBL5291721, “A preclinical secondary pharmacology resource illuminates target-adverse drug reaction associations of marketed drugs” (Nat Commun, 2023).

Experiments:
Adenosine receptor A3 = molecular target: T1, Adenosine receptor A3 (Homo sapiens, UniProt P0DMS8)
T1 sequence (P0DMS8 whole entry): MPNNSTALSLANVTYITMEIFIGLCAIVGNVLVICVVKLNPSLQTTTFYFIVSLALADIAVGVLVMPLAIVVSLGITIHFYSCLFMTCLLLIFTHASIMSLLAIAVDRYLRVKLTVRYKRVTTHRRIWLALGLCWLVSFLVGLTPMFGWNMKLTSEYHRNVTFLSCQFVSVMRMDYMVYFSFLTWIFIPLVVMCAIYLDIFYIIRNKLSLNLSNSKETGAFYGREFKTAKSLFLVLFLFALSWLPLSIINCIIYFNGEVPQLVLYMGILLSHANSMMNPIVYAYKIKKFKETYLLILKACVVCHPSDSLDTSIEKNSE

[1] = molecular target: T2, Alpha-1A adrenergic receptor (Homo sapiens, UniProt P35348); format: functional, cell-based
T2 sequence (P35348 whole entry): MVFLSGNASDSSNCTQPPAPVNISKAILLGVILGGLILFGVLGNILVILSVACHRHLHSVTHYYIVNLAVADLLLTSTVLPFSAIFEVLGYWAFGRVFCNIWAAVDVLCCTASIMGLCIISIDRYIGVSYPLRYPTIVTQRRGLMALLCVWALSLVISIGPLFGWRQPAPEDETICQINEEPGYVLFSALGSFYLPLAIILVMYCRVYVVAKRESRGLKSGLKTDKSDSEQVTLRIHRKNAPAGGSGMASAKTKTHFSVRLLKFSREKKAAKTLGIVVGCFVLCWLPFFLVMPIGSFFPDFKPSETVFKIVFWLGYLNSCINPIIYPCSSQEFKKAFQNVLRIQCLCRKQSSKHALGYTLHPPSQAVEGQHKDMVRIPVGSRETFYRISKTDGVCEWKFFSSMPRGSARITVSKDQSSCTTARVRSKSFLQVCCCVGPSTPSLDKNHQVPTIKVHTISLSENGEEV

[2] = molecular target: T2, Alpha-1A adrenergic receptor
Histamine H3 receptor = Histamine H3 receptor (Homo sapiens, UniProt Q9Y5N1)
Chain of Histamine H3 receptor (Q9Y5N1 whole entry): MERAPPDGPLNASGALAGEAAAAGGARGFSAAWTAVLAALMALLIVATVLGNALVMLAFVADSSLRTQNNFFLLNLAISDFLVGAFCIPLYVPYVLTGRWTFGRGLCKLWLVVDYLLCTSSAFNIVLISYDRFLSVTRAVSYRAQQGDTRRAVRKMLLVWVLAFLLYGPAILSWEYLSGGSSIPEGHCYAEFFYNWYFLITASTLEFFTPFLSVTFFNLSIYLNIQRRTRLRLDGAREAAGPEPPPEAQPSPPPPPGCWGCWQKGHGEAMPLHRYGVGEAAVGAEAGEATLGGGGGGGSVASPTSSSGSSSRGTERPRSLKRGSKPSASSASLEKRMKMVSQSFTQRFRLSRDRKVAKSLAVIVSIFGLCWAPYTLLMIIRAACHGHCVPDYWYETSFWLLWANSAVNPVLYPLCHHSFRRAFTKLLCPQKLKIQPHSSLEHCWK

[3] = molecular target: T3, Amine oxidase [flavin-containing] A (Homo sapiens, UniProt P21397); format: functional
T3 sequence (P21397 whole entry): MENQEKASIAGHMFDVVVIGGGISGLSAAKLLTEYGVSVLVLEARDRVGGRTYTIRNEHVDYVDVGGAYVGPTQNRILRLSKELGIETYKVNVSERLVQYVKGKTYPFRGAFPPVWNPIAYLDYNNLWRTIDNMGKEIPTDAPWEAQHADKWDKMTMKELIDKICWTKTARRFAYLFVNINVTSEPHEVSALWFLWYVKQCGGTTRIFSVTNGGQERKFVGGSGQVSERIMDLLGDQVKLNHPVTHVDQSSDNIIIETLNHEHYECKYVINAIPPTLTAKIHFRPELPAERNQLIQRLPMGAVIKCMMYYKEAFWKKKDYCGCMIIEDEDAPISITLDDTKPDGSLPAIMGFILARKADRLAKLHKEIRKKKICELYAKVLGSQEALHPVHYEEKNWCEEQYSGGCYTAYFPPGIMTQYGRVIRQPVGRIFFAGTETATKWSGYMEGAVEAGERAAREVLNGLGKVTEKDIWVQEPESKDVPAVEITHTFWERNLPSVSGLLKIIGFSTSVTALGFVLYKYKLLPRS

[4] = molecular target: T4, Neuropeptide Y receptor type 1 (Homo sapiens, UniProt P25929)
T4 sequence (P25929 whole entry): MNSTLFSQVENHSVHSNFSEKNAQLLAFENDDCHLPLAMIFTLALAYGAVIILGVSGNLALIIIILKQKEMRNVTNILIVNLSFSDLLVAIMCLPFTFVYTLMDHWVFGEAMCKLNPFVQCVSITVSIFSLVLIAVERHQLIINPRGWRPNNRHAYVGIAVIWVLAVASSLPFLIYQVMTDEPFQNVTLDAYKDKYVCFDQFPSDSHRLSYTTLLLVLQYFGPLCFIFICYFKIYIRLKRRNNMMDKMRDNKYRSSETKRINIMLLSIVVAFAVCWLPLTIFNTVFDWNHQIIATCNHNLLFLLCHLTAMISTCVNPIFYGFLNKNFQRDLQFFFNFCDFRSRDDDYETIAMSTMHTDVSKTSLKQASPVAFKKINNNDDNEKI

Glucocorticoid receptor = molecular target: T5, Glucocorticoid receptor (Homo sapiens, UniProt P04150)
T5 sequence (P04150 whole entry): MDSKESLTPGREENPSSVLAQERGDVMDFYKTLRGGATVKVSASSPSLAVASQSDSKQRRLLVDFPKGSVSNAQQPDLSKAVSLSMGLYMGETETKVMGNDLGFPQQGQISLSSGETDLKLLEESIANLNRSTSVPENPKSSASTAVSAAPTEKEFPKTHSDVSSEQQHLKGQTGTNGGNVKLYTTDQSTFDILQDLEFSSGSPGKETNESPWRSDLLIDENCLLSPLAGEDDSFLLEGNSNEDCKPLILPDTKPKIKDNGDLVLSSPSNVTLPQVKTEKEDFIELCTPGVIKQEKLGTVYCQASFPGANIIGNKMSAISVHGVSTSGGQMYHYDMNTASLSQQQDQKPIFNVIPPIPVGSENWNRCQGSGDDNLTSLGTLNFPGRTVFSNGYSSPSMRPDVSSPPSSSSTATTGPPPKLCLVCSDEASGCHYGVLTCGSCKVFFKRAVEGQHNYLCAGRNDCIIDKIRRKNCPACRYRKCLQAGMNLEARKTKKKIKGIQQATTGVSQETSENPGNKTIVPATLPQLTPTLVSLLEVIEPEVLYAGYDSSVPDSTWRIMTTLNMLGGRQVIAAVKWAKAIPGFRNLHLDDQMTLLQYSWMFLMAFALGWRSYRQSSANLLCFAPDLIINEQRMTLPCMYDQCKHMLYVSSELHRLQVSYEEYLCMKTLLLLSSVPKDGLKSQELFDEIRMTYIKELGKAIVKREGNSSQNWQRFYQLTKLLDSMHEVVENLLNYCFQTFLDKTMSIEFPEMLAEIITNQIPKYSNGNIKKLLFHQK

[5] = molecular target: Kappa-type opioid receptor (Homo sapiens, UniProt P41145)
Chain of Kappa-type opioid receptor (P41145 whole entry): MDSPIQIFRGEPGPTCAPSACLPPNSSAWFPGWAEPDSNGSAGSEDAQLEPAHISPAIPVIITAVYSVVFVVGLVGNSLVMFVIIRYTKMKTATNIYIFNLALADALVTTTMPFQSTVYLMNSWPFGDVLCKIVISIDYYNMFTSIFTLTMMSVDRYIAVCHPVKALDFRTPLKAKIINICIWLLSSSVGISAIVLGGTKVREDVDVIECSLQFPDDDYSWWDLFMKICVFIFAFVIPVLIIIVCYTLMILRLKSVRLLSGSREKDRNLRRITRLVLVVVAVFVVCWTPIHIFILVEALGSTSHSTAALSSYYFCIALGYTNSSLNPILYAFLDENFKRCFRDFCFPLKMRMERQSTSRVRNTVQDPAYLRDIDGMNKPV

[6] = molecular target: cGMP-inhibited 3',5'-cyclic phosphodiesterase 3A (Homo sapiens, UniProt Q14432); format: functional
Chain of cGMP-inhibited 3',5'-cyclic phosphodiesterase 3A (Q14432 whole entry): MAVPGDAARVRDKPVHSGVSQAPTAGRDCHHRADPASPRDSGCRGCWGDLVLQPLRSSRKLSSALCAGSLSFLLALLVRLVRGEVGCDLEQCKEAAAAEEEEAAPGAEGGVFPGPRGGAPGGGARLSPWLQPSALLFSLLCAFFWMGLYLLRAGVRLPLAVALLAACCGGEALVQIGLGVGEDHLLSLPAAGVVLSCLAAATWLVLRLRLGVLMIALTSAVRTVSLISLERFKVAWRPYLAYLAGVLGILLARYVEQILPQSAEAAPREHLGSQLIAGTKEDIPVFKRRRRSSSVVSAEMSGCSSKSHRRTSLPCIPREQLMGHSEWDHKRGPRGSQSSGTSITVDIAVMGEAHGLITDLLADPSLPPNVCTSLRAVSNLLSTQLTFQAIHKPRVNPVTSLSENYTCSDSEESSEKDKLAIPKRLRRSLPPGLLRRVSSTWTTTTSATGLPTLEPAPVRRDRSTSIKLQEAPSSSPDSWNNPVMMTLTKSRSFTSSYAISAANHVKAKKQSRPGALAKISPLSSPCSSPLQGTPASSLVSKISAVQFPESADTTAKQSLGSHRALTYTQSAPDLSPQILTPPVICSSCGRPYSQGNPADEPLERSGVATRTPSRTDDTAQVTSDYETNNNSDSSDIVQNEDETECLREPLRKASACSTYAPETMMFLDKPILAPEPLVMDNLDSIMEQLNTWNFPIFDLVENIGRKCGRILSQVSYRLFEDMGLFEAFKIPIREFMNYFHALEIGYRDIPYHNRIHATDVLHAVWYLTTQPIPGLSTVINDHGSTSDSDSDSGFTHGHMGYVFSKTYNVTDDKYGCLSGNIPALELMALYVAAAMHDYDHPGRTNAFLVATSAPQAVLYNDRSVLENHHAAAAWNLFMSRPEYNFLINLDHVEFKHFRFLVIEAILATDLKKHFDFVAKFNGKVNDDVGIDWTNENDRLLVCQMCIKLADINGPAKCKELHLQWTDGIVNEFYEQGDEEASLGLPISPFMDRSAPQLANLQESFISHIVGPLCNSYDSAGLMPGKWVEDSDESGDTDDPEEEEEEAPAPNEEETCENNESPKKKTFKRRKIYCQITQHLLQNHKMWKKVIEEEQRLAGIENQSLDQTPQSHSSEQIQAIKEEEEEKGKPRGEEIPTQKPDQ
Further: assay procedure not described here.

## NCC(CC(=O)O)c1ccc(Cl)cc1 (stereo not given) [BACLOFEN]
Adenosine receptor A3
  AC50: > 30 µM
[1]
  AC50: > 30 µM
[2]
  AC50: > 10 µM
Histamine H3 receptor
  AC50: > 30 µM
[3]
  AC50: > 30 µM
[4]
  AC50: > 30 µM
Glucocorticoid receptor
  AC50: > 30 µM
[5]
  AC50: > 10 µM
[6]
  AC50: > 30 µM

## Cc1cn([C@H]2C=C[C@@H](CO)O2)c(=O)[nH]c1=O [STAVUDINE]
Adenosine receptor A3
  AC50: > 30 µM
[1]
  AC50: > 30 µM
[2]
  AC50: 29.9 µM
Histamine H3 receptor
  AC50: > 30 µM
[3]
  AC50: > 30 µM
[4]
  AC50: > 30 µM
[5]
  AC50: > 10 µM
[6]
  AC50: > 30 µM

## CO[C@H]1C[C@@H]2CC[C@@H](C)[C@@](O)(O2)C(=O)C(=O)N2CCCC[C@H]2C(=O)O[C@H]([C@H](C)C[C@@H]2CC[C@@H](O)[C@H](OC)C2)CC(=O)[C@H](C)/C=C(\C)[C@@H](O)[C@@H](OC)C(=O)[C@H](C)C[C@H](C)/C=C/C=C/C=C/1C [SIROLIMUS]
Adenosine receptor A3
  AC50: 26.4 µM
[1]
  AC50: > 30 µM
[2]
  AC50: 0.156 µM
Histamine H3 receptor
  AC50: > 30 µM
[3]
  AC50: > 30 µM
[4]
  AC50: > 30 µM
[5]
  AC50: > 10 µM
[6]
  AC50: > 30 µM

## CS(=O)(=O)c1ccc(C2=C(c3ccccc3)C(=O)OC2)cc1 [ROFECOXIB]
Adenosine receptor A3
  AC50: 18.5 µM
[1]
  AC50: > 30 µM
[2]
  AC50: > 10 µM
Histamine H3 receptor
  AC50: > 30 µM
[3]
  AC50: > 30 µM
[4]
  AC50: > 30 µM
Glucocorticoid receptor
  AC50: > 30 µM
[5]
  AC50: > 10 µM
[6]
  AC50: > 30 µM

## Cc1cn([C@H]2C[C@H](N=[N+]=[N-])[C@@H](CO)O2)c(=O)[nH]c1=O [ZIDOVUDINE]
Adenosine receptor A3
  AC50: > 30 µM
[1]
  AC50: > 30 µM
[2]
  AC50: > 10 µM
Histamine H3 receptor
  AC50: > 30 µM
[3]
  AC50: > 30 µM
[4]
  AC50: > 30 µM
Glucocorticoid receptor
  AC50: > 30 µM
[5]
  AC50: > 10 µM
[6]
  AC50: > 30 µM

## CC(C)C[C@H]1C(=O)N2CCC[C@H]2[C@]2(O)O[C@](NC(=O)[C@@H]3C=C4c5cccc6[nH]c(Br)c(c56)C[C@H]4N(C)C3)(C(C)C)C(=O)N12 [BROMOCRIPTINE]
Adenosine receptor A3
  AC50: 1.92 µM
[2]
  AC50: 0.197 µM
Histamine H3 receptor
  AC50: > 30 µM
[3]
  AC50: > 30 µM
[4]
  AC50: > 30 µM
Glucocorticoid receptor
  AC50: > 30 µM
[5]
  AC50: 12.8 µM
[6]
  AC50: > 30 µM

## Cc1cccc(Nc2ccccc2C(=O)O)c1C [MEFENAMIC ACID]
Adenosine receptor A3
  AC50: > 30 µM
[1]
  AC50: > 30 µM
[2]
  AC50: > 10 µM
Histamine H3 receptor
  AC50: > 30 µM
[3]
  AC50: > 30 µM
[4]
  AC50: > 10 µM
Glucocorticoid receptor
  AC50: > 10 µM
[5]
  AC50: > 10 µM
[6]
  AC50: > 30 µM
